Test system: PTX-resistant KB-V1 cervical cancer cells
Experiment: Cytotoxicity, SRB assay
Format: cell-based
Conditions: 48 h incubation, 0.01-1000 nM, triplicate

CC(=O)O[C@H]1C(=O)[C@@]2(C)[C@H]([C@H](OC(=O)c3ccccc3)[C@]3(O)C[C@H](OC(=O)[C@H](O)[C@@H](NC(=O)c4ccccc4)c4ccccc4)C(C)=C1C3(C)C)[C@]1(OC(C)=O)CO[C@@H]1C[C@@H]2O [PTX, paclitaxel]
Toxicity (in words): do not exert any toxicity

— paper PMC4319564 (Journal of materials chemistry. B, Materials for biology …, 2014)
